Measurements taken from PubChem BioAssay AID1259407 (Chemical Carcinogenesis Research Information System (CCRIS), 2018).
Calls of active or inactive are those of the source. How the calls were made is not given here.

Tested on: CCRIS mutagenicity, Ames/micronucleus/aberration tests
Test: CCRIS mutagenicity studies

For O=c1c(O)c(-c2ccc(O)c(O)c2)oc2cc(O)cc(O)c12, the mutagenic call (End Point: IN VIVO MICRONUCLEUS, Test System: BONE MARROW POLYCHROMATIC ERYTHROCYTES, Species: MOUSE, Strain/Sex: DDY/MALE, Route: IP) was “inactive; negative”, the mutagenic call (End Point: In vivo micronucleus, Test System: Bone marrow polychromatic erythrocytes, Species: Rat, Strain/Sex: Wistar/Male, Route: Oral (gavage)) was “inactive; negative” and the mutagenic call (Test System: AMES SALMONELLA TYPHIMURIUM, Strain/Indicator: TA97, Metabolic Activation: NONE, Method: STANDARD PLATE) was “active; positive”. For the same compound, the mutagenic call (Test System: AMES SALMONELLA TYPHIMURIUM, Strain/Indicator: TA97A, Metabolic Activation: NONE, Method: STANDARD PLATE) was “active; positive”, the mutagenic call (Test System: AMES SALMONELLA TYPHIMURIUM, Strain/Indicator: TA97A, Metabolic Activation: RAT, LIVER, S9, AROCLOR 1254, Method: STANDARD PLATE) was “active; positive” and the mutagenic call (Test System: AMES SALMONELLA TYPHIMURIUM, Strain/Indicator: TA98, Metabolic Activation: HAMSTER, LIVER, S9, AROCLOR 1254 (30%), Method: PREINCUBATION) was “active; positive”. For the same compound, the mutagenic call (Test System: AMES SALMONELLA TYPHIMURIUM, Strain/Indicator: TA98, Metabolic Activation: NONE, Method: FLUCTUATION (MICROTITER)) was “active; positive”, the mutagenic call (Test System: AMES SALMONELLA TYPHIMURIUM, Strain/Indicator: TA98, Metabolic Activation: NONE, Method: PREINCUBATION) was “active; positive” and the mutagenic call (Test System: AMES SALMONELLA TYPHIMURIUM, Strain/Indicator: TA98, Metabolic Activation: NONE, Method: STANDARD PLATE) was “active; positive”. For the same compound, the mutagenic call (Test System: AMES SALMONELLA TYPHIMURIUM, Strain/Indicator: TA98, Metabolic Activation: RAT, LIVER, CYTOSOL, Method: PREINCUBATION) was “active; positive”, the mutagenic call (Test System: AMES SALMONELLA TYPHIMURIUM, Strain/Indicator: TA98, Metabolic Activation: RAT, LIVER, S9, 5,6-BENZOFLAVONE AND/OR SODIUM PHENOBARBITAL, Method: PREINCUBATION) was “active; positive” and the mutagenic call (Test System: AMES SALMONELLA TYPHIMURIUM, Strain/Indicator: TA98, Metabolic Activation: RAT, LIVER, S9, AROCLOR 1254 (30%), Method: PREINCUBATION) was “active; positive”. For the same compound, the mutagenic call (Test System: AMES SALMONELLA TYPHIMURIUM, Strain/Indicator: TA98, Metabolic Activation: RAT, LIVER, S-9, PHENOBARBITAL, Method: STANDARD PLATE) was “active; positive”, the mutagenic call (Test System: AMES SALMONELLA TYPHIMURIUM, Strain/Indicator: TA98, Metabolic Activation: S9, GLUCOSE-6-PHOSPHATE AND NADP, Method: STANDARD PLATE) was “active; positive” and the mutagenic call (Test System: AMES SALMONELLA TYPHIMURIUM, Strain/Indicator: TA98, Metabolic Activation: S9, Method: STANDARD PLATE) was “active; positive”. For the same compound, the mutagenic call (Test System: AMES SALMONELLA TYPHIMURIUM, Strain/Indicator: TA98, Metabolic Activation: S-100, GLUCOSE-6-PHOSPHATE AND NADP, Method: STANDARD PLATE) was “active; positive”, the mutagenic call (Test System: AMES SALMONELLA TYPHIMURIUM, Strain/Indicator: TA98, Metabolic Activation: S-100, Method: STANDARD PLATE) was “active; positive” and the mutagenic call (Test System: AMES SALMONELLA TYPHIMURIUM, Strain/Indicator: TA100, Metabolic Activation: HAMSTER, LIVER, S9, AROCLOR 1254 (30%), Method: PREINCUBATION) was “active; positive”. For the same compound, the mutagenic call (Test System: AMES SALMONELLA TYPHIMURIUM, Strain/Indicator: TA100, Metabolic Activation: NONE, Method: PREINCUBATION) was “active; positive”, the mutagenic call (Test System: AMES SALMONELLA TYPHIMURIUM, Strain/Indicator: TA100, Metabolic Activation: NONE, Method: STANDARD PLATE) was “active; positive” and the mutagenic call (Test System: AMES SALMONELLA TYPHIMURIUM, Strain/Indicator: TA100, Metabolic Activation: RAT, LIVER, S9, AROCLOR 1254 (30%), Method: PREINCUBATION) was “active; positive”. The mutagenic call (Test System: AMES SALMONELLA TYPHIMURIUM, Strain/Indicator: TA100, Metabolic Activation: RAT, LIVER, S-9, PHENOBARBITAL, Method: STANDARD PLATE) was “active; positive”, the mutagenic call (Test System: AMES SALMONELLA TYPHIMURIUM, Strain/Indicator: TA102, Metabolic Activation: RAT, LIVER, S9, AROCLOR 1254, Method: STANDARD PLATE) was “active; positive” and the mutagenic call (Test System: AMES SALMONELLA TYPHIMURIUM, Strain/Indicator: TA1535, Metabolic Activation: NONE, Method: STANDARD PLATE) was “inactive; negative”. For the same compound, the mutagenic call (Test System: AMES SALMONELLA TYPHIMURIUM, Strain/Indicator: TA1537, Metabolic Activation: NONE, Method: FLUCTUATION (MICROTITER)) was “active; positive”, the mutagenic call (Test System: AMES SALMONELLA TYPHIMURIUM, Strain/Indicator: TA1538, Metabolic Activation: NONE, Method: STANDARD PLATE) was “active; positive” and the mutagenic call (Test System: AMES SALMONELLA TYPHIMURIUM, Strain/Indicator: TA7001, Metabolic Activation: NONE, Method: FLUCTUATION (MICROTITER)) was “inactive; negative”. The mutagenic call (Test System: AMES SALMONELLA TYPHIMURIUM, Strain/Indicator: TA7002, Metabolic Activation: NONE, Method: FLUCTUATION (MICROTITER)) was “active; positive”, the mutagenic call (Test System: AMES SALMONELLA TYPHIMURIUM, Strain/Indicator: TA7003, Metabolic Activation: NONE, Method: FLUCTUATION (MICROTITER)) was “inactive; negative” and the mutagenic call (Test System: AMES SALMONELLA TYPHIMURIUM, Strain/Indicator: TA7004, Metabolic Activation: NONE, Method: FLUCTUATION (MICROTITER)) was “active; positive”. For the same compound, the mutagenic call (Test System: AMES SALMONELLA TYPHIMURIUM, Strain/Indicator: TA7005, Metabolic Activation: NONE, Method: FLUCTUATION (MICROTITER)) was “active; positive”, the mutagenic call (Test System: AMES SALMONELLA TYPHIMURIUM, Strain/Indicator: TA7006, Metabolic Activation: NONE, Method: FLUCTUATION (MICROTITER)) was “inactive; negative” and the mutagenic call (Test System: Ames Salmonella typhimurium, Strain/Indicator: TA98, Metabolic Activation: None, Method: Standard plate) was “active; positive”. For the same compound, the mutagenic call (Test System: Ames Salmonella typhimurium, Strain/Indicator: TA98, Metabolic Activation: Rat, Liver, S9, Aroclor 1254, Method: Standard plate) was “active; positive”, the mutagenic call (Test System: Ames Salmonella typhimurium, Strain/Indicator: TA100, Metabolic Activation: None, Method: Standard plate) was “active; positive” and the mutagenic call (Test System: Ames Salmonella typhimurium, Strain/Indicator: TA100, Metabolic Activation: Rat, Liver, S9, Aroclor 1254, Method: Standard plate) was “active; positive”. The mutagenic call (Test System: Ames Salmonella typhimurium, Strain/Indicator: TA102, Metabolic Activation: Fe ++ (1 uM) with NADPH generating system, Method: Preincubation) was “active; positive”, the mutagenic call (Test System: Ames Salmonella typhimurium, Strain/Indicator: TA102, Metabolic Activation: None, Method: Preincubation) was “active; positive” and the mutagenic call (Test System: Ames Salmonella typhimurium, Strain/Indicator: TA102, Metabolic Activation: Rat, Liver, S9, Aroclor 1254, Method: Preincubation) was “active; positive”. For the same compound, the mutagenic call (Test System: Ames Salmonella typhimurium, Strain/Indicator: TA102, Metabolic Activation: Rat, Liver, S-9, Aroclor 1254 in 0.154 M KCl, Method: Preincubation) was “active; positive”, the mutagenic call (Test System: E. coli, Strain/Indicator: WP2 uvrA, Metabolic Activation: Fe ++ (1 uM) with NADPH generating system, Method: Preincubation) was “active; positive” and the mutagenic call (Test System: E. coli, Strain/Indicator: WP2 uvrA, Metabolic Activation: None, Method: Preincubation) was “active; positive”. The mutagenic call (Test System: E. coli, Strain/Indicator: WP2 uvrA, Metabolic Activation: Rat, Liver, S9, Aroclor 1254, Method: Preincubation) was “active; positive”, the mutagenic call (Test System: UDS RAT GASTRIC MUCOSAL CELLS, Strain/Indicator: THY INCORP, Metabolic Activation: NONE, Method: LIQUID SCINTILLATION COUNTING) was “inactive; negative” and the mutagenic call (Test System: UDS Rat hepatocytes, Strain/Indicator: Wistar (Male and female), Method: Autoradiography) was “inactive; negative”.
